Columns and labels:
Lactobacillus crispatus = conditions: L. crispatus single culture, 24 hours at 37° C., 5% CO2, 0.625% boric acid; MRS without boric acid 1.19 × 10^7
Lactobacillus gasseri = conditions: L. gasseri single culture, 24 hours at 37° C., 5% CO2, 0.625% boric acid; MRS without boric acid 7.28 × 10^6
Lactobacillus jensenii = conditions: L. jensenii single culture, 24 hours at 37° C., 5% CO2, 0.625% boric acid; MRS without boric acid 7.63 × 10^6
Lactobacillus rhamnosus = conditions: L. rhamnosus single culture, 24 hours at 37° C., 5% CO2, 0.625% boric acid; MRS without boric acid 7.45 × 10^6
[1] = test system: mixture of four lactobacilli; conditions: mix of four lactobacilli, 24 hours at 37° C., 5% CO2, 0.625% boric acid; MRS without boric acid 7.63 × 10^6
[2] = test system: lactobacilli tested, either alone or in combination; conditions: 0.625% boric acid
Gardnerella vaginalis = conditions: summary statement of the description
Candida albicans [3] = conditions: summary statement of the description
[4] = vaginal suppositories 600 mg/ovule, throughout the duration of the treatment; cited from earlier work
Candida albicans [5] = conditions: cited from earlier work
[6] = low concentrations, non-therapeutic doses, first 24 hours

## OB(O)O [boric acid]
Lactobacillus crispatus
  lactobacilli culture count, MRS with boric acid: 6.29 × 10^6
Lactobacillus gasseri
  lactobacilli culture count, MRS with boric acid: 2.37 × 10^6
Lactobacillus jensenii
  lactobacilli culture count, MRS with boric acid: 7.47 × 10^6
Lactobacillus rhamnosus
  lactobacilli culture count, MRS with boric acid: 3.17 × 10^6
[1]
  lactobacilli culture count, MRS with boric acid: 7.40 × 10^6
[2]
  inhibitory effect on the growth of the lactobacilli: no inhibitory effect
Gardnerella vaginalis
  activity against Gardnerella vaginalis: poor activity
Candida albicans [3]
  activity against Candida albicans: good activity
[4]
  circulation levels of boric acid: under 1 μg/ml
Candida albicans [5]; in vitro tests
  pH at which the substance completely inhibits the growth of Candida albicans: 5-5.9
Candida albicans [5]; [6]
  cellular ergosterol: decrease
  inhibition of the micro-organisms growth, planktonic and biofilm form: moderate inhibition

Source: US20170071990A1 (Pizeta Group Srl, priority 2014, published 2017)
